Activity calls are given as the source filed them. For most assays here, no stated cut-off is given here; in the data, actives have a measured EC50 and inactives only a lower limit. Where only a bound is given, the exact number is not on record here.

Among the data in ChEMBL document CHEMBL1201862, “PubChem BioAssay data set” (2004) are EC50 and IC50 values, retold here.

The target of experiment [1] is Luciferin 4-monooxygenase (Photinus pyralis, UniProt P08659). The experiment in a line: firefly luciferase enzyme inhibitors, dose response, biochemical, luminescence (AID 1891).
Experiment [2] can be described thus: Luminescence Cell-Based Dose Confirmation HTS to Identify Inhibitors of Platelet Dense Granule Release. [Related pubchem assays: 1663 (Primary HTS), 1678 (Summary of Project)]. In kind it is functional.
A short description of experiment [3]: NIH-3T3 fibroblast cytotoxicity, dose response, cytotoxicity control, cell-based, fluorescence, Alamar Blue, secondary assay (AID 2327).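 Further: NIH-3T3 mouse fibroblasts cultured with fluconazole at 8 µg/mL.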 In kind it is functional.
The nature of experiment [4]: C. albicans growth with fluconazole, confirmation, fluorescence, retest (AID 2467). Format: functional, cell-based.
Experiment [5] has as its target T1, Calpain-2 catalytic subunit (Sus scrofa, UniProt P43367).
T1 sequence (P43367 whole entry): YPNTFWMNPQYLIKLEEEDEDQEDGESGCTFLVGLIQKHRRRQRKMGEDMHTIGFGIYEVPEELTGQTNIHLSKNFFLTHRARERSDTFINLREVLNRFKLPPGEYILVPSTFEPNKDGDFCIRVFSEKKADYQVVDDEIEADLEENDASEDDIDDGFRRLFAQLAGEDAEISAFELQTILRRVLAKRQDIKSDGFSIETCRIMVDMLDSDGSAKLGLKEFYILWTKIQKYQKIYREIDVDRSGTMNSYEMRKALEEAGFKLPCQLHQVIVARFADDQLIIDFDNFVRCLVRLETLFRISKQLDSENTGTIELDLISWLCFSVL
The experiment in a line: pig calpain II inhibitor potency, dose response, biochemical, fluorogenic peptide substrate (AID 1420). Format: functional.

Experiment [6] deals with BJ. The experiment in a line: cytotoxicity toward BJ-TERT fibroblasts, dose response, cell-based, RAS-independent, luminescence (AID 1933). Format: functional. The settings on record: Homo sapiens.
Experiment [7] concerns BJ. The experiment in a line: cells. Format: functional, cell-based. The settings on record: Homo sapiens.
Experiment [8] has as its system BJ. The experiment in a line: cytotoxicity toward BJ-TERT-LT-ST fibroblasts, dose response, cell-based, RAS-independent, luminescence (AID 1935).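 Further: BJ fibroblasts immortalized with TERT plus LT and ST oncogenes.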 Format: functional. The settings on record: Homo sapiens.
A short description of experiment [9]: cytotoxicity toward DRD oncogenic fibroblasts, dose response, cell-based, non-viral oncogenic, luminescence (AID 1934). In kind it is functional. The settings on record: Homo sapiens.
A short description of experiment [10]: inhibitors of firefly luciferase expression or activity, dose response, H4 neuroglioma cells, luminescence (AID 1990). Format: functional, cell-based.
The nature of experiment [11]: Luminescence Cell-Based Dose Response HTS to Identify Inhibitors of 5'UTR Stem-Loop Driven Prion Protein mRNA Translation in H4 Neuroglioblastoma Cells. [Related pubchem assays: 1827 (Project Summary), 1813 (Primary HTS)]. Format: functional.
The nature of experiment [12]: inhibitors of SNCA 5'UTR-driven reporter translation, confirmation, H4 neuroglioma cells, luminescence (AID 1988). Format: functional, cell-based.
The nature of experiment [13]: growth suppression of PTEN-null colon cells, dose response, cell-based, HCT116 PTEN knockout (AID 1047).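 Further: HCT116 colon tumor cells with PTEN knocked out; cells exposed to compound for 60 hours before readout; potency for loss of cell viability measured by luminescence.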 In kind it is functional.
Experiment [14] is described as follows: growth suppression of beta-catenin-knockout colon cells, dose response, cell-based, HCT116, human colon tumor (AID 1045).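 Further: HCT116 colon tumor cells with beta catenin knocked out; cells exposed to compound for 60 hours.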 In kind it is functional.
Experiment [15] in a line: Luminescence Cell-Based Dose Response HTS to Identify Activators of Luciferase Translation or Activity in H4 […] Cells. [Related pubchem assays: 1829 (Project Summary), 1814 (Primary HTS)]. Format: functional.
The subject of a further experiment is H4. The experiment in a line: Luminescence Cell-Based Dose Response HTS to Identify Activators of 5'UTR Stem-Loop Driven Prion Protein mRNA Translation in H4 Neuroglioblastoma Cells. [Related pubchem assays: 1829 (Project Summary), 1814 (Primary HTS)]. In kind it is functional. The settings on record: Homo sapiens.
The nature of experiment [16]: inhibitors of intracellular T. cruzi replication, confirmation, NIH3T3 host cells, beta-gal luminescence (AID 2044).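 Further: intracellular parasites grown in NIH/3T3 mouse fibroblasts as host cells; luminescent beta-galactosidase reporter signal from transgenic T. cruzi replicating inside host cells; inhibitors lower the luminescence signal.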 In kind it is functional, cell-based.
Experiment [17] is described as follows: cytotoxicity toward NIH3T3 fibroblasts, dose response, counter-screen, cell-based, ATP luminescence, mouse fibroblasts (AID 2010).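 Further: cells exposed to compound for about 90 hours before reading.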 In kind it is functional. On the technique in general: The purpose of a counterscreen is to sort out artefacts and off-target activity.

Chain of Luciferin 4-monooxygenase (P08659 whole entry): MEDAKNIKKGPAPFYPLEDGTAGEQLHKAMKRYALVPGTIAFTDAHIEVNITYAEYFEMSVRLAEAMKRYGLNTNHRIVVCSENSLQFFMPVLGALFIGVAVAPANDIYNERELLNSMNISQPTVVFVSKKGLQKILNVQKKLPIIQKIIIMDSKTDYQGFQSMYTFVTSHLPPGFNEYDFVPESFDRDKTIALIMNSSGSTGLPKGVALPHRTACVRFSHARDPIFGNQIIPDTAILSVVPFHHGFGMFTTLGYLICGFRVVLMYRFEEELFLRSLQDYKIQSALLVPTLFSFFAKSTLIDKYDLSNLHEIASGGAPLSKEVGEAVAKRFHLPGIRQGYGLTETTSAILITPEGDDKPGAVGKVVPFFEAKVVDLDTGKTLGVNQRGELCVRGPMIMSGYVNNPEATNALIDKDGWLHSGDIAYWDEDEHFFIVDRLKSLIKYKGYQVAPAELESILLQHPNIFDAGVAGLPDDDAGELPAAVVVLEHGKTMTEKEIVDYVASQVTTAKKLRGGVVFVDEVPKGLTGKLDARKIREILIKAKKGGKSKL

What is called EC50 is the concentration at which the effect is half-maximal. In the case of `COc1ccc(C(=O)Nc2cccc(C)c2)cc1`, the EC50 was 16.1 µM (active) in [1] and 7.08 µM (active) in experiment [2].
Turning to `CCNS(=O)(=O)c1ccc(NC(=O)c2cccnc2)cc1`, the EC50 in experiment [3] was > 160 µM (inactive); in [4], > 38 µM (not active); in [1], > 112 µM (not active); in [2] it was > 112 µM (not active).
The IC50 is the point on the concentration scale where inhibition reaches its midpoint. As to `COC(=O)c1ccccc1NC(=S)NC(=O)COc1ccccc1`, the concentration for half-maximal inhibition (IC50) in experiment [5] is on record as 6.37 µM (not active).
On the same count and under the same terms, for `CC(C)CC(C(=O)OCC(=O)c1c(N)n(C)c(=O)n(C)c1=O)N1C(=O)C2CC=CCC2C1=O` (configuration not stated) the value was 12.9 µM (not active); for `Cn1c(=O)[nH]c(=O)c2[nH]c(N(Cc3ccccc3)Cc3ccccc3)nc21`, > 50 µM (not active).
On to `Cn1c(NC(=O)Cc2cccs2)cc(=O)n(C)c1=O`, for which the EC50 in [1] and in [2] was > 112 µM (not active) each time.
As for `CC(=O)c1ccc(N=C(S)N(Cc2ccccc2)C(C)C2CC2)cc1` (configuration not stated), the IC50 in experiment [5] is reported as 23.9 µM (not active).
`CC1N(O)C(c2ccc(Cl)cc2Cl)N(O)C1(C)C` (configuration not stated): the EC50 in experiment [1] and in [2] was > 112 µM (not active) in each case.
Turning to `O=C(NCc1cccc(Cl)c1)c1ccc2c(c1)SC1=NS(=O)(=O)CCN12`, the IC50 in experiment [5] is listed as 14.8 µM (not active).
In the case of `CC(C)(C)NC(=O)c1cc(C(C)(C)C)c(O)c(C(C)(C)C)c1`, the IC50 in experiment [5] was 3.38 µM (not active).
The same measure, in the same setting: the figure for `COc1ccc(NC(=O)CN(c2ccccc2)S(=O)(=O)c2ccccc2)c(OC)c1` is 49.3 µM (not active); for `c1ccc(CCn2nnnc2CN2CCN(C3CCCC3)CC2)cc1` it is > 50 µM (not active).
As for `N#Cc1ccsc1NC(=O)CCc1ccccc1`, the EC50 with BJ [6] is 15.7 µM (active); in the experiment on BJ [7], 34.1 µM (active); in the experiment with BJ [8], 18.1 µM (active); in [9], 19.3 µM (active).
Regarding `O=[N+]([O-])c1ccc2c(c1)C(N1CCOCC1)/C(=C/COc1ccc(Cl)cc1Cl)O2` (configuration not stated), the IC50 in [5] is 5.41 µM (not active).
Turning to `COC(=O)c1cc2n(n1)CCN(Cc1ccc(F)cc1)C2=O`, the EC50 in experiment [1] and in [2] was > 112 µM (not active) each time.
Consider `COc1cc2c(cc1OC)-c1cc(Nc3ccc(C)cc3)nc(=O)n1CC2`, for which the EC50 in experiment [1] is > 112 µM (not active); in experiment [2], 3.46 µM (active).
The corresponding values for `CC(Sc1ccccc1)C(=O)Nc1ccccc1C(=O)N1CCOCC1` (configuration not stated) are > 112 µM (not active) and > 112 µM (not active).
As to `CC(=O)Nc1cccc(NC(=O)C(=O)Nc2ccc3c(c2)N(C(=O)C2CC2)CCC3)c1`, the values for the EC50 in experiment [1] and in [2] were 31 µM (active) and > 112 µM (not active), respectively.
Consider `CCCCOc1ccccc1NC(=O)Cn1c(-c2nonc2N)nc2ccccc21`, for which the EC50 in experiment [10] was 7.21 µM (inconclusive); in the experiment on BJ [6] it was 3.38 µM (active); in experiment [11] it was 8.28 µM (active); in experiment [12], 2.49 µM (active); in the experiment with BJ [7], 7.06 µM (active); in experiment [13], 0.254 µM (active). The figures for the EC50 (in experiment [14]; in the experiment on BJ [8]; in [9]) were 0.163 µM (active), 3.73 µM (inconclusive) and 4.23 µM (active), respectively.
Take `Cc1c(C(=O)NCc2ccoc2)oc2ccc3c(c12)C(=O)CC(C)(C)O3`: the EC50 is 33.7 µM (active) in experiment [15] and > 120 µM (not active) in the experiment on H4.
On to `O=C(CSc1ncc(C(F)(F)F)cc1Cl)N1CCN(S(=O)(=O)c2ccc(Cl)cc2)CC1`, for which, in [5], the IC50 is given as 4.37 µM (not active).
As to `CCOC(=O)C1=C(CNCCc2ccc(Cl)cc2)NC(=O)NC1c1ccc2c(c1)OCO2` (configuration not stated), the EC50 was 13.3 µM (active) in [16] and > 60 µM (not active) in experiment [17]. In addition, the IC50 in experiment [5] was > 50 µM (not active).
Regarding `COCCCNC(=O)Cn1c(=O)n(CCCCCC(=O)Nc2ccccc2)c(=O)c2sccc21`, the EC50 in experiment [1] and in experiment [2] was > 112 µM (not active) throughout.
On to `Cc1ccc(C)c(C2NC(=O)c3ccccc3N2)c1` (configuration not stated), for which the EC50 in the experiment on BJ [6] is 9.8 µM (inconclusive); with BJ [7], 93.9 µM (active); with BJ [8], 18.2 µM (active); in experiment [9] it was 19.3 µM (inconclusive).
The corresponding values for `CN1CCN(C(=O)/C=C/c2ccc([N+](=O)[O-])o2)CC1` are 44.6 µM (active), > 150 µM (not active), > 150 µM (not active) and > 150 µM (not active).
The matching figures for `NC(=O)N/N=C/c1cn(-c2ccccc2)nc1-c1cccs1`: 19.4 µM (active), > 150 µM (not active), > 150 µM (not active) and 36 µM (active).
Regarding `COc1ccc(/C=N/Nc2nn3cnnc3c3ccccc23)cc1`, the IC50 in experiment [5] is given as 5.99 µM (not active).
The same measure, in the same setting: the figure for `CC(C)NC(=S)N/N=C/c1ccc2c(c1)OCCO2` is > 50 µM (not active).
